According to publication PMC2120548 (The Journal of Cell Biology, 1995):
One block for each compound: values may come before it. Ends that are not written are not given here.

Assays:
[1] = Fibronectin on control peptide column; assay type: binding; conditions: not shown
[2] = tested on: fibronectin type III10 (RGD-containing) fragments; assay: Panning of phage display peptide libraries on fibronectin fragments; assay type: binding; conditions: Table I
fibronectin = assay: Affinity chromatography on *[…]*-Sepharose; assay type: binding, Human
RGD-mimic OPG2 antibody = conditions: aspartic acid residues of DDLW mutated to alanines; ref Bajt et al. (3); cited from earlier work
fibrinogen = conditions: aspartic acid residues of DDLW mutated to alanines; cited from earlier work
[3] = tested on: MG-63 osteosarcoma cells, fibronectin; assay: Cell attachment assay on fibronectin; assay type: cell-based; conditions: MG-63 cells, 30 min, crystal violet OD600, mean of triplicate wells
[4] = tested on: MG-63 osteosarcoma cells, vitronectin; assay: Cell attachment assay on vitronectin; assay type: cell-based; conditions: MG-63 cells, 30 min, crystal violet OD600, mean of triplicate wells
[5] = tested on: MG-63 osteosarcoma cells, type IV collagen; assay: Cell attachment assay on type IV collagen; assay type: cell-based; conditions: MG-63 cells, 30 min, crystal violet OD600, mean of triplicate wells
RGD-phage = assay type: binding; conditions: peptide coated at 20 μg/ml; mean of triplicate wells
[6] = Inhibition of WDDGWL-phage attachment to immobilized peptides; assay type: binding; conditions: soluble peptide 1 mM; mean of triplicate wells, Fig. 3 b
[7] = tested on: beta 3 subunit of purified alpha IIb beta 3; assay: Immunoblot of purified alpha IIb beta 3; assay type: binding
[8] = Inhibition of RGD-phage binding to immobilized beta 3
[9] = tested on: III8-11 fibronectin fragment / WDDGWL-phage; assay: Inhibition of WDDGWL-phage binding to fibronectin fragment by peptides; conditions: soluble competitor, microtiter assay, Fig. 2 b
[10] = tested on: beta 1 and beta 3 integrin subunits in MG-63 total cell extracts; assay: Immunoblot of MG-63 cell extracts; assay type: binding; conditions: peptide 100 μM, Fig. 7 b lanes C and D
[11] = Inhibition of RGD-phage attachment to immobilized peptides; assay type: binding; conditions: soluble peptide 1 mM; mean of triplicate wells, Fig. 3 c
[12] = WDDGWL-phage attachment to immobilized peptide; assay type: binding; conditions: peptide coated at 20 μg/ml; mean of triplicate wells
[13] = tested on: fragment encompassing the alternatively spliced cell attachment domain of fibronectin; assay: Phage attachment assay on alternatively spliced fibronectin fragment; assay type: binding; conditions: not shown
[14] = tested on: control proteins (BSA and GST); assay: Phage attachment assay on control proteins; assay type: binding; conditions: microtiter wells, OD600, mean of triplicates
[15] = tested on: fibronectin fragment III8,9 (RGD-); assay: Phage attachment assay on fibronectin fragment III8,9; assay type: binding; conditions: microtiter wells, OD600, mean of triplicates
[16] = tested on: fibronectin and fibronectin fragments containing the RGD sequence (III10); assay: Phage attachment assay on fibronectin and RGD-containing fibronectin fragments; assay type: binding, Human

Compound: Fibronectin
- retention on control unrelated peptide column [1]: not retained

Compound: FVLWLV
- number of phage displaying the same amino acid motif ([2]; direct infection of wells): 1

Compound: SWDDGWL
- number of phage displaying the same amino acid motif ([2]; direct infection of wells): 6

Compound: DYWLGF
- number of phage displaying the same amino acid motif ([2]; direct infection of wells): 1

Compound: GRGESP
- elution of fibronectin from *CWDDGWLC*-Sepharose (fibronectin; eluting peptide 1 mM, SDS-PAGE): not with the GRGESP peptide

Compound: BSA: control protein
- retention on *CWDDGWLC*-Sepharose column (fibronectin; proteins other than fibronectin): not retained

Compound: PDDLWWL
- number of phage displaying the same amino acid motif ([2]; direct infection of wells): 3

Compound: QRIVLGFT
- number of phage displaying the same amino acid motif ([2]; direct infection of wells): 1

Compound: WDDGWM
- number of phage displaying the same amino acid motif ([2]; RGD elution): 4

Compound: mutant alIb[33 integrin: integrin with aspartic acid residues of DDLW mutated to alanines (ref 3)
- binding to OPG2 antibody (RGD-mimic OPG2 antibody): lost
- binding to fibrinogen (fibrinogen): did not appreciably affect the binding

Compound: *CVRLNSLAC* (disulfide) [reference compound]
- inhibition of cell attachment [3]: no effect on any of the substrates
- inhibition of cell attachment [4]: no effect on any of the substrates
- inhibition of cell attachment [5]: no effect on any of the substrates

Compound: WDDLWWL
- number of phage displaying the same amino acid motif ([2]; RGD elution): 10

Compound: WDDGLM
- number of phage displaying the same amino acid motif ([2]; RGD elution): 7

Compound: TLRFQRS
- number of phage displaying the same amino acid motif ([2]; EDTA elution): 1

Compound: LVWLLVQFY
- number of phage displaying the same amino acid motif ([2]; EDTA elution): 2

- binding of RGD-phage to immobilized peptide (RGD-phage): can bind to the *CWDDGWLC*-containing
- inhibition of WDDGWL-phage binding to immobilized peptide [6]: blocked the WDDGWL-phage binding
- inhibition of RGD-phage binding ([8]; soluble peptide, Fig. 6 b): blocked
- inhibition of WDDGWL-phage binding [9]: in a dose-dependent manner
- inhibition of RGD-phage binding to immobilized peptide [11]: inhibited by both peptides
Compound: *CWDDGWLC* (disulfide)
- inhibition of cell attachment [3]: inhibited cell adhesion
- inhibition of cell attachment [4]: inhibited cell adhesion
- effect of peptide on reactivity of positive control antibodies ([7]; Fig. 7 a or b, also MG-63 extracts): no ef- fect on the reactivity of the positive control antibodies
- reactivity of the anti-*CWDDGWLC* serum after preincubation with peptide ([7]; peptide 100 μM, Fig. 7 a lanes C and D): abrogated
- reactivity of the anti-WDDGWL serum after preincubation with peptide [10]: abrogated
- binding of fibronectin to peptide-Sepharose (fibronectin; fibronectin 2 mg, TBS, SDS-PAGE): fibronectin bound to *CWDDGWLC*-Sepharose
- inhibition of cell attachment [5]: not on collagen

- effect of EDTA on RGD-phage binding ([8]; peptides coated in the presence of cations, EDTA 10 mM): did not block phage binding
Compound: O=C(O)CN(CCN(CC(=O)O)CC(=O)O)CC(=O)O [EDTA, reference compound]

- binding of RGD-phage to immobilized peptide (RGD-phage): slight, but consistent, binding
- inhibition of WDDGWL-phage binding to immobilized peptide [6]: blocked the WDDGWL-phage binding
- inhibition of WDDGWL-phage binding [9]: in a dose-dependent manner
- inhibition of RGD-phage binding to immobilized peptide [11]: inhibited by both peptides
Compound: A*CRGDGWMC*G (disulfide) [reference compound]
- binding of WDDGWL-phage to immobilized peptide [12]: WDDGWL-phage can bind to the RGD-containing peptide

Compound: WDDGWL (disulfide (positions not given here))
- phage binding [13]: minimal
- number of phage displaying the same amino acid motif ([2]; EDTA elution): 21
- number of phage displaying the same amino acid motif ([2]; RGD elution): 131
- number of phage displaying the same amino acid motif ([2]; direct infection of wells): 45
- phage binding [14]: minimal
- phage binding [15]: minimal
- divalent cation requirement of phage binding [16]: did not require divalent cations

Compound: DGWLGF
- number of phage displaying the same amino acid motif ([2]; direct infection of wells): 2

Compound: GNRLR
- number of phage displaying the same amino acid motif ([2]; direct infection of wells): 1
